# Values of other authors as cited in paper PMC12525602, “Identification of Selective α-Glucosidase Inhibitors via Virtual Screening with Machine Learning” (Molecules, 2025).
# Test system: α-glucosidase
# Settings: 300-compound dataset of reported inhibitors and ineffective compounds, Table S4; cited from earlier work
row,Structure (SMILES),activity (label in modeling dataset)
1,"COc1ccc(S(=O)(=O)NNC(=O)c2cc3cc(F)ccc3[nH]2)cc1OC [compound 3, FC1=CC=C(NC(C(NNS(=O)(C2=CC(OC)=C(OC)C=C2)=O)=O)=C3)C3=C1]",0
2,"C[C@@H]1O[C@@H](Oc2cc(O)c3c(=O)c(O[C@@H]4O[C@@H](C)[C@H](O)[C@@H](O)[C@H]4O)c(-c4ccc(O)cc4)oc3c2)[C@H](O)[C@H](O)[C@H]1O [compound 0, C[C@H]1[C@H](O)[C@@H](O)[C@@H](O)[C@H](OC2=CC(O)=C3C(OC(C4=CC=C(O)C=C4)=C(O[C@H]5[C@H](O)[C@H](O)[C@@H](O)[C@H](C)O5)C3=O)=C2)O1]",0

# Same assay, conditions: Table S5 modeling dataset; activity label 1 = active, 0 = inactive; cited from earlier work
row,Structure (SMILES),activity
1,O=C(c1ccccc1)c1ccc2nc(-c3ccc(Cl)cc3Cl)[nH]c2c1 [compound 110],0
2,COC(=O)/C=C/c1ccc(O)c(OC)c1 [compound 127],0
3,N#Cc1c(-c2ccncc2)cc(-c2ccc(Cl)cc2)c(C#N)c1N [compound 113],0
4,CC1CCCN(c2ccc(/C=N/Nc3nc(-c4ccc(C#N)cc4)cs3)cc2)C1 (stereo not shown) [compound 106],0
5,CC1(C)CC[C@]2(C(=O)O)CC[C@]3(C)C(=CC[C@@H]4[C@@]5(C)CC[C@H](O)C(C)(C)[C@@H]5CC[C@]43C)[C@@H]2C1 [compound 126],0
6,N#Cc1c(-c2ccc(Cl)cc2)cc(-c2cccc([N+](=O)[O-])c2)c(C#N)c1N [compound 120],0
7,O=C(c1ccccc1)c1ccc2nc(-c3ccc(F)cc3)[nH]c2c1 [compound 95],0
8,N#Cc1c(-c2ccc(Cl)cc2)cc(-c2ccc(Cl)cc2)c(C#N)c1N [compound 131],0
9,O=C(NNS(=O)(=O)c1ccc([N+](=O)[O-])cc1)c1cc2cc(F)ccc2[nH]1 [compound 109],0
10,COc1cccc(C(=O)C2C(O)c3ccccc3S(=O)(=O)N2CC(=O)Nc2cccc(Br)c2)c1 (stereo not shown) [compound 118],0

# Same assay, conditions: activity label in the 300-compound modeling dataset (Table S5); 1 = active, 0 = inactive; cited from earlier work
row,Structure (SMILES),activity
1,Cc1ccc(-c2cc(C(F)(F)F)nn2-c2ccc(S(=O)(=O)NC(=O)c3ccccc3[N+](=O)[O-])cc2)cc1 [compound 201],1
2,O=c1c(O)c(-c2ccc(O)cc2)oc2c(O)c(O)cc(O)c12 [compound 219],1
3,O=C(NNS(=O)(=O)c1ccccc1F)c1cc2cc(F)ccc2[nH]1 [compound 226],1
4,O=[N+]([O-])c1ccc(-c2nnc(/N=C(/CSc3nnc4c(n3)[nH]c3ccccc34)c3ccc(-c4ccccc4)cc3)s2)cc1 [compound 230],1
5,COc1ccc(/C(CSc2nnc3c(n2)[nH]c2ccccc23)=N\c2nnc(-c3ccccc3[N+](=O)[O-])s2)cc1 [compound 213],1
6,COc1cccc(C(=O)C2C(O)c3ccccc3S(=O)(=O)N2CC(=O)Nc2ccccc2Br)c1 (stereo not shown) [compound 187],1
7,Fc1ccc(CNc2cccc(-c3nc4ccccc4[nH]3)c2)cc1 [compound 227],1

# Same assay, conditions: activity label of the 300-compound modeling dataset, Table S5; cited from earlier work
row,Structure (SMILES),activity
1,O=C1Nc2ccccc2/C1=N/N=C/c1ccc(OCc2cn(Cc3ccccc3)nn2)cc1 [compound 259],1
2,COc1cccc(CNc2cccc(-c3nc4ccccc4[nH]3)c2)n1 [compound 270],1
3,Cc1ccc(/C(CSc2nnc3c(n2)[nH]c2ccccc23)=N\c2nnc(-c3ccc([N+](=O)[O-])cc3)s2)cc1 [compound 239],1
4,O=C(COc1c(I)cc(Cl)c2cccnc12)c1ccc(Cl)cc1 [compound 241],1
5,O=C(/C=C/c1ccc(O)c(F)c1)c1cccc2[nH]c(=O)oc12 [compound 246],1
6,O=c1c(O)c(-c2ccc(O)cc2)oc2cc(O)cc(O)c12 [compound 244],1
7,COc1ccc2nc3cc(Cl)ccc3c(SCC(=O)NCc3cccc(Cl)c3)c2c1 [compound 266],1
8,O=C1CC(/C=N/Nc2ccc(F)cc2)Oc2ccccc21 (stereo not shown) [compound 235],1
9,O=C1CC(/C=N/Nc2cccc(Br)c2)Oc2ccccc21 (stereo not shown) [compound 233],1
10,N#Cc1cccc(N/N=C/C2CC(=O)c3ccccc3O2)c1 (stereo not shown) [compound 251],1
11,O=C1C(=NN=Cc2ccc(OCc3cn(Cc4ccc(F)cc4)nn3)cc2)c2ccccc2N1c1ccc(Br)cc1 [compound 262],1
12,O=C1Nc2ccccc2/C1=N/N=C/c1ccc(OCc2cn(Cc3ccc(F)cc3)nn2)cc1 [compound 271],1
13,O=C(/C=C/c1ccc(O)c(O)c1)c1cccc2[nH]c(=O)oc12 [compound 274],1
14,CC(C)(C)c1ccc(N/N=C/C2CC(=O)c3ccccc3O2)cc1 (stereo not shown) [compound 234],1
15,O=C(/C=C/c1cc(F)c(O)c(F)c1)c1cccc2[nH]c(=O)oc12 [compound 245],1
16,COc1cc(/C=N/N=C2\C(=O)Nc3ccccc32)ccc1OCc1cn(Cc2ccc(C)cc2)nn1 [compound 253],1
17,Cc1ccc(-c2cnc3ccccc3n2)cc1 [compound 257],1
18,Cc1ccc(/C(CSc2nnc3c(n2)[nH]c2ccccc23)=N\c2nnc(-c3ccc(Cl)c(Cl)c3)s2)cc1 [compound 277],1

# Same assay, conditions: activity label of the modeling dataset (Table S5), α-glucosidase; 1 = active, 0 = inactive; cited from earlier work
row,Structure (SMILES),activity
1,CC1CCCN(c2ccc(/C=N/Nc3nc(-c4ccc(Cl)cc4)cs3)cc2)C1 (stereo not shown) [compound 13],0
2,N#Cc1c(-c2cccnc2)cc(-c2ccco2)c(C#N)c1N [compound 19],0
3,"COc1ccc(S(=O)(=O)NNC(=O)c2cc3cc(F)ccc3[nH]2)cc1OC [compound 3, FC1=CC=C(NC(C(NNS(=O)(C2=CC(OC)=C(OC)C=C2)=O)=O)=C3)C3=C1]",0
4,"C[C@@H]1O[C@@H](Oc2cc(O)c3c(=O)c(O[C@@H]4O[C@@H](C)[C@H](O)[C@@H](O)[C@H]4O)c(-c4ccc(O)cc4)oc3c2)[C@H](O)[C@H](O)[C@H]1O [compound 0, C[C@H]1[C@H](O)[C@@H](O)[C@@H](O)[C@H](OC2=CC(O)=C3C(OC(C4=CC=C(O)C=C4)=C(O[C@H]5[C@H](O)[C@H](O)[C@@H](O)[C@H](C)O5)C3=O)=C2)O1]",0
5,O=c1c(O[C@@H]2O[C@H](CO)[C@@H](O)[C@H](O)[C@H]2O)c(-c2ccc(O)c(O)c2)oc2cc(O)cc(O)c12 [compound 31],0
6,Clc1cccc(Cn2cc(CSc3nnc(COc4cccc5cccnc45)o3)nn2)c1 [compound 16],0
7,CC1CCN(c2ccc(/C=N/Nc3nc(-c4ccc(Br)cc4)cs3)cc2)CC1 [compound 15],0
8,O=C(c1ccccc1)c1ccc2nc(-c3ccc(Br)cc3)[nH]c2c1 [compound 8],0
9,CCCCCCCCCCCCCCCCCC(N)=O [compound 27],0
10,COc1ccc(Nc2nnc(-c3cc4cc(C#N)ccc4[nH]3)s2)cc1 [compound 40],0
11,Cc1ccc(-c2cc(-c3cccc([N+](=O)[O-])c3)c(C#N)c(N)c2C#N)cc1 [compound 20],0
12,N#Cc1c(-c2cccnc2)cc(-c2ccccn2)c(C#N)c1N [compound 42],0
13,N#Cc1c(-c2cccnc2)cc(-c2ccsc2)c(C#N)c1N [compound 37],0

# Same assay, conditions: activity label of the modeling dataset, Table S5 (1 = active, 0 = inactive); cited from earlier work
row,Structure (SMILES),activity
1,C=CCSc1nnc(COc2cccc3cccnc23)o1 [compound 85],0
2,CC(C)c1ccc(S(=O)(=O)NNC(=O)c2cc3cc(F)ccc3[nH]2)cc1 [compound 88],0

# Same assay, conditions: activity label of the modeling dataset, Table S5; cited from earlier work
row,Structure (SMILES),activity
1,CC(C)=CCC1=C(O)C(CC=C(C)C)(CC=C(C)C)C(=O)C(C(=O)CC(C)C)=C1O [compound 163],1
2,COc1cc(/C=N/N=C2\C(=O)Nc3ccccc32)ccc1OCc1cn(Cc2ccccc2F)nn1 [compound 143],0
3,O=C(CSc1nc2ccccc2cc1-c1nc2ccccc2[nH]1)Nc1cccc(Cl)c1 [compound 149],1
4,COc1cc(O)c(CC=C(C)C)c(O)c1C(=O)/C=C/c1ccc(O)cc1 [compound 167],1
5,COc1cc(/C=C(\C(=O)O)c2cc(/C=C/C(=O)O)cc(OC)c2O)ccc1O [compound 166],1
6,O=[N+]([O-])c1ccccc1-c1nnc(/N=C(/CSc2nnc3c(n2)[nH]c2ccccc23)c2cccc([N+](=O)[O-])c2Br)s1 [compound 171],1
7,COc1cc(O)c(CC=C(C)C)c2c1C(=O)CC(c1ccc(O)cc1)O2 (stereo not shown) [compound 179],1
8,N#Cc1ccc2[nH]c(-c3nnc(Nc4cccc([N+](=O)[O-])c4)s3)cc2c1 [compound 154],1
9,O=[N+]([O-])c1ccccc1-c1nnc(/N=C(/CSc2nnc3c(n2)[nH]c2ccccc23)c2ccc(Br)cc2Br)s1 [compound 153],1
10,CC(C)=CCC1=C(O)[C@@](O)(CC=C(C)C)C(=O)C(C(=O)CC(C)C)=C1O [compound 138],0
11,CC1CCCN(c2ccc(/C=N/Nc3nc(-c4ccc(O)cc4)cs3)cc2)C1 (stereo not shown) [compound 140],0
12,COc1ccc(Br)cc1-c1nnc(/N=C(/CSc2nnc3c(n2)[nH]c2ccccc23)c2ccc(-c3ccccc3)cc2)s1 [compound 165],1

# Same assay, conditions: activity label of the modeling dataset, sheet Table S5; 1 = active, 0 = inactive; cited from earlier work
row,Structure (SMILES),activity
1,COc1ccc(/C=N/N=C(/C)c2ccc([N+](=O)[O-])cc2)cc1 [compound 279],1
2,O=c1c(O)c(-c2ccc(O)c(O)c2)oc2cc(O)cc(O)c12 [compound 289],1
3,COC(=O)Cn1c(=O)oc2c(C(=O)/C=C/c3ccc(O)cc3)cccc21 [compound 287],1
